Patent US6713475B2, “Tricyclic benzodiazepines as vasopressin receptor antagonists” (Ortho-McNeil Pharmaceutical, Inc., priority 1999, dated 2004)
Counter-ions that a name gives are not always drawn.

Legend:
[1] = target: T1, human V-1 receptor (Homo sapiens, UniProt P37288); assay: In vitro recombinant vasopressin receptor binding assay (V1 Bdg), displacement of 3H-arginine vasopressin; conditions: for inhibition at 0.1 µM: read-out: V1 Bdg (% inh, 0.1 uM); for V1 Bdg % inh: 1 uM
T1 construct: expressed in transfected cells; host or cells: HEK-293
Outline: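 Membranes from HEK-293 cells bearing cloned human V-1 receptor, incubated 1 h at room temperature with 0.65-0.75 nM 3H-arginine-8-vasopressin in pH 7.5 Tris/MgCl2/BSA buffer with protease inhibitors. Filtration onto GF/C, scintillation count. Non-specific binding with 1.25 uM arginine-8-vasopressin.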

[2] = target: T2, V2 (Homo sapiens, UniProt P30518); assay: V2 cAMP; format: cell-based
[3] = test system: vasopressin-induced hypertension in anesthetized rats; assay: Reversal of vasopressin-induced hypertension in rats (intraduodenal dosing); format: in vivo, rat; conditions: I.D. dose 10 mg/kg, single dose into the duodenum, maximum percent reversal, monitored for 60 minutes
Method: Reversal of Vasopressin-Induced Hypertension in Rats
The anti-hypertensive activity of compounds was screened in an anesthetized model of vasopressin-induced hypertension. Male Long Evans, normotensive rats of between 350 and 450 g in body weight were anesthetized with pentobarbital (35 mg/kg, ip) and maintained throughout the procedure with an ip infusion of 10 mg/kg/hr. Arginine vasopressin was infused at 30 ng/kg/min, iv, to induce a stable hypertensive state (ca. 50 mmHg increase in mean arterial blood pressure). Compounds of interest were administered in an ascending dose fashion and the maximum decrease in mean arterial blood pressure was recorded. An ED50 was determined from the linear portion of the dose-response relationship for each animal.
This model was modified slightly to assess the bioavailability of compounds of interest. Rather than dosing the animals iv in an ascending dose fashion, a single dose per animal was administered directly into the duodenum. The anti-hypertensive effects were then monitored for 60 minutes and the maximum percent reversal was calculated.

[4] = target: T2, V2; assay: In vitro recombinant vasopressin receptor binding assay (V2 Bdg), displacement of 3H-arginine vasopressin; set-up: expressed in transfected cells; host or cells: HEK-293; conditions: for IC50: membrane with cloned human V-2 receptor (HEK-293); for V2 Bdg % inh: 0.1 uM, printed in parentheses in place of IC50
Outline: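 Displacement of ³H-vasopressin from membranes of HEK-293 cells bearing cloned human V-2 receptor, incubated with test compound one hour at room temperature. Bound label was collected on PEI-soaked GF/C filters, washed with cold saline/0.05% Tween 20, and counted by scintillation.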

T1 sequence (P37288 whole entry): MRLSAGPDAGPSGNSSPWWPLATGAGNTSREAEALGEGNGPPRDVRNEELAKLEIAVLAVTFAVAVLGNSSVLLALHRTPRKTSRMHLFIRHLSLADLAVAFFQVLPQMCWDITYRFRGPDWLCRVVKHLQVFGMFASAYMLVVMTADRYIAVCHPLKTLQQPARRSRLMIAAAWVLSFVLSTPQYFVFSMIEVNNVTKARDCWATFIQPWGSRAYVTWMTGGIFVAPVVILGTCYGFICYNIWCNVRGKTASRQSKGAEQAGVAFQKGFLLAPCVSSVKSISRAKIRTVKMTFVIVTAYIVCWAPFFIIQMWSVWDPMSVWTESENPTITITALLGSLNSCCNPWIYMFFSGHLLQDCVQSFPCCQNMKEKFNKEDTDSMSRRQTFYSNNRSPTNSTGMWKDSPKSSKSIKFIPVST
T2 sequence (P30518 whole entry): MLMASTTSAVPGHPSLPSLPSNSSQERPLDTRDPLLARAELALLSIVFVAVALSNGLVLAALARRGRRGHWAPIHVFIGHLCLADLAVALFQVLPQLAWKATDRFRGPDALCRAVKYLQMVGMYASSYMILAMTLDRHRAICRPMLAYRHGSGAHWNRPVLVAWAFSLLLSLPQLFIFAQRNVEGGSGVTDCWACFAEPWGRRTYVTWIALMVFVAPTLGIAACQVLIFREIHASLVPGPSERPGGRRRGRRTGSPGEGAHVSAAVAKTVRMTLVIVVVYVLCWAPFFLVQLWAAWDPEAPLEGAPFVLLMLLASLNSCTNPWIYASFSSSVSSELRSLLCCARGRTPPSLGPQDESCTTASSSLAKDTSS

Row | inhibition at 0.1 µM [1] [%] | IC50 [4] [nM] | melting point | Structure (SMILES) | other results
1 | 31 | 9 | – | O=C(Nc1ccc(C(=O)N2CC3CCCCN3Cc3ccccc32)cc1)c1ccccc1-c1ccccc1 (stereo not shown) [Compound 1, 10-[4-[[(2-Biphenyl)carbonyl]amino]benzoyl]-10,11-dihydro-5H-piperidino[2,1-c][1,4]benzodiazepine] | IC50 [2]: 210 nM; BP Reduction (%) [3]: 67%
2 | – | – | 194 to 199 °C | O=C(Nc1ccc(C(=O)N2CC3CSCCN3Cc3cc(F)c(F)cc32)cc1)c1ccccc1-c1ccccc1 (racemic) (as salt: HCl) [Compound 35, (RS)-2-Phenyl-N-[4-(8,9-difluoro-1,3,4,12a-tetrahydro-6H-[1,4]thiazino[4,3-a][1,4]-benzodiazepin-11(12H)-yl-carbonyl)phenyl]benzamide] | –
3 | – | – | 191 to 193 °C | O=C(Nc1ccc(C(=O)N2CC3CCCCN3Cc3ccccc32)cc1)c1ccccc1-c1ccccc1 (stereo not shown) (as salt: HCl) [Compound 1, 10-[4-[[(2-Biphenyl)carbonyl]amino]benzoyl]-10,11-dihydro-5H-piperidino[2,1-c][1,4]benzodiazepine] | –
4 | – | – | 192 to 197 °C | O=C(Nc1ccc(C(=O)N2C[C@H]3CSCCN3Cc3ccccc32)c(Cl)c1)c1ccccc1-c1ccccc1 (as salt: HCl) [Compound 47, (S)-2-Phenyl-N-[3-chloro-4-(1,3,4,12a-tetrahydro-6H-[1,4]thiazino[4,3-a][1,4]-benzodiazepin-11(12H)-yl-carbonyl)phenyl]benzamide] | –
5 | 42 | – | – | O=C(Nc1ccc(C(=O)N2CC3CSCCN3Cc3ccccc32)cc1)c1ccccc1-c1ccccc1 (racemic) [Compound 3, (RS)-2-Phenyl-N-[4-(1,3,4,12a-tetrahydro-6H-[1,4]thiazino[4,3-a][1,4]-benzodiazepin-11(12H)-yl-carbonyl)phenyl]benzamide] | BP Reduction (%) [3]: 100%
6 | – | 2 | – | O=C(Nc1ccc(C(=O)N2C[C@H]3COCCN3Cc3ccccc32)c(Cl)c1)c1ccccc1-c1ccccc1 [Compound 4, (S)-2-Phenyl-N-[3-chloro-4-(1,3,4,12a-tetrahydro-6H-[1,4]oxazino[4,3-a][1,4]-benzodiazepin-11(12H)-yl-carbonyl)phenyl]benzamide] | IC50 [2]: 11 nM; BP Reduction (%) [3]: 100%
7 | – | – | 188 to 195 °C (dec.) | O=C(Nc1ccc(C(=O)N2CC3COCCN3Cc3ccccc32)cc1O)c1ccccc1-c1ccccc1 (racemic) (as salt: HCl) [Compound 22, (RS)-2-Phenyl-N-[2-hydroxy-4-(1,3,4,12a-tetrahydro-6H-[1,4]oxazino[4,3-a][1,4]-benzodiazepin-11(12H)-yl-carbonyl)phenyl]benzamide] | –
8 | 29 | 14 | – | O=C(Nc1ccc(C(=O)N2CC3CC=CCN3Cc3ccccc32)cc1)c1ccccc1-c1ccccc1 (stereo not shown) [Compound 2, 10-[4-[[(2-Biphenyl)carbonyl]amino]benzoyl]-10,11-dihydro-5H-(tetrahydropyridino)[2,1-c][1,4]benzodiazepine] | IC50 [2]: 460 nM
9 | – | – | 177 to 180 °C | O=C(Nc1ccc(C(=O)N2CC3CSCCN3Cc3cc(F)ccc32)cc1)c1ccccc1-c1ccccc1 (racemic) (as salt: HCl) [Compound 32, (RS)-2-Phenyl-N-[4-(8-fluoro-1,3,4,12a-tetrahydro-6H-[1,4]thiazino[4,3-a][1,4]-benzodiazepin-11(12H)-yl-carbonyl)phenyl]benzamide] | –
10 | – | – | 185 to 188 °C (dec.) | O=C(Nc1ccc(C(=O)N2CC3COCCN3Cc3ccccc32)c(O)c1)c1ccccc1-c1ccccc1 (racemic) (as salt: HCl) [Compound 23, (RS)-2-Phenyl-N-[3-hydroxy-4-(1,3,4,12a-tetrahydro-6H-[1,4]oxazino[4,3-a][1,4]-benzodiazepin-11(12H)-yl-carbonyl)phenyl]benzamide] | –
11 | – | – | – | Cc1cc(NC(=O)c2ccccc2-c2ccccc2)ccc1C(=O)N1CC2CN(C)CCN2Cc2ccccc21 (racemic) [Compound 89, (RS)-2-Phenyl-N-[3-methyl-4-(1,3,4,12a-tetrahydro-2-methyl-6H-[1,4]pyrazino[4,3-a][1,4]-benzodiazepin-11(12H)-yl-carbonyl)phenyl]benzamide] | V1 Bdg % inh [1]: (51%/1 uM); V2 Bdg % inh [4]: (56%/0.1 uM)
12 | – | – | – | CN1CCN2Cc3ccccc3N(C(=O)c3ccc(NC(=O)c4ccccc4-c4ccccc4)cc3F)CC2C1 (racemic) [Compound 70, (RS)-2-Phenyl-N-[3-fluoro-4-(1,3,4,12a-tetrahydro-2-methyl-6H-[1,4]pyrazino[4,3-a][1,4]-benzodiazepin-11(12H)-yl-carbonyl)phenyl]benzamide] | V1 Bdg % inh [1]: (9%/1 uM); V2 Bdg % inh [4]: (44%/0.1 uM)
13 | – | – | – | O=C(Nc1ccc(C(=O)N2CC3COCCN3C(=O)c3ccccc32)c(Cl)c1)c1ccccc1-c1ccccc1 (racemic) [Compound 21, (RS)-2-Phenyl-N-[3-chloro-4-(1,3,4,12a-tetrahydro-6H-[1,4]oxazino[4,3-a][1,4]-5-oxo-benzodiazepin-11(12H)-yl-carbonyl)phenyl]benzamide] | V1 Bdg (% inh, 0.1 uM) ([1]; 0.1 uM): 2%; V2 Bdg % inh [4]: (59%/0.1 uM)
14 | 11 | 8 | – | Cc1cccc(C(=O)Nc2ccc(C(=O)N3CC4COCCN4Cc4ccccc43)c(Cl)c2)c1C (racemic) [Compound 11, (RS)-2,3-Dimethyl-N-[3-chloro-4-(1,3,4,12a-tetrahydro-6H-[1,4]oxazino[4,3-a][1,4]-benzodiazepin-11(12H)-yl-carbonyl)phenyl]benzamide] | –
15 | – | – | – | CN1CCN2Cc3ccccc3N(C(=O)c3ccc(NC(=O)c4c(Cl)cccc4Cl)cc3Cl)CC2C1 (racemic) [Compound 98, (RS)-2,6-Dichloro-N-[3-chloro-4-(1,3,4,12a-tetrahydro-2-methyl-6H-[1,4]pyrazino[4,3-a][1,4]-benzodiazepin-11(12H)-yl-carbonyl)phenyl]benzamide] | V1 Bdg % inh [1]: (26%/1 uM); V2 Bdg % inh [4]: (12%/0.1 uM)
16 | 24 | 27 | – | O=C(Nc1ccc(C(=O)N2CC3COCCN3Cc3ccccc32)c(Cl)c1)c1ccccc1SC(F)F (racemic) [Compound 19, (RS)-2-(Difluoromethylthio)-N-[3-chloro-4-(1,3,4,12a-tetrahydro-6H-[1,4]oxazino[4,3-a][1,4]-benzodiazepin-11(12H)-yl-carbonyl)phenyl]benzamide] | –
17 | – | – | 191 to 196 °C | Cc1ccc2c(c1)CN1CCSCC1CN2C(=O)c1ccc(NC(=O)c2ccccc2-c2ccccc2)cc1 (racemic) (as salt: HCl) [Compound 36, (RS)-2-Phenyl-N-[4-(8-methyl-1,3,4,12a-tetrahydro-6H-[1,4]thiazino[4,3-a][1,4]-benzodiazepin-11(12H)-yl-carbonyl)phenyl]benzamide] | –
18 | – | – | > 210 °C (dec.) | O=C(Nc1ccc(C(=O)N2C[C@H]3COCCN3Cc3ccccc32)c(Cl)c1)c1ccccc1-c1ccccc1 (as salt: HCl) (hydrate or solvate) [Compound 4, (S)-2-Phenyl-N-[3-chloro-4-(1,3,4,12a-tetrahydro-6H-[1,4]oxazino[4,3-a][1,4]-benzodiazepin-11(12H)-yl-carbonyl)phenyl]benzamide] | –
19 | – | – | – | COc1cc(NC(=O)c2ccccc2C)ccc1C(=O)N1CC2CN(C)CCN2Cc2ccccc21 (racemic) [Compound 83, (RS)-2-Methyl-N-[3-methoxy-4-(1,3,4,12a-tetrahydro-2-methyl-6H-[1,4]pyrazino[4,3-a][1,4]-benzodiazepin-11(12H)-yl-carbonyl)phenyl]benzamide] | V1 Bdg % inh [1]: (44%/1 uM); V2 Bdg % inh [4]: (10%/0.1 uM)
20 | – | 38 | – | O=C(Nc1ccc(C(=O)N2CC3CSCCN3Cc3cc(F)c(F)cc32)cc1)c1ccccc1-c1ccccc1 (racemic) [Compound 35, (RS)-2-Phenyl-N-[4-(8,9-difluoro-1,3,4,12a-tetrahydro-6H-[1,4]thiazino[4,3-a][1,4]-benzodiazepin-11(12H)-yl-carbonyl)phenyl]benzamide] | inhibition at 10 µM ([1]; 10 uM, read-out: V1 Bdg % inh): 15%
21 | 15 | 18 | – | O=C(Nc1ccc(C(=O)N2CC3COCCN3Cc3ccccc32)c(Cl)c1)c1cccc(Cl)c1F (racemic) [Compound 18, (RS)-2-Fluoro-3-chloro-N-[3-chloro-4-(1,3,4,12a-tetrahydro-6H-[1,4]oxazino[4,3-a][1,4]-benzodiazepin-11(12H)-yl-carbonyl)phenyl]benzamide] | –
22 | 75 | 22 | – | O=C(Nc1ccc(C(=O)N2CC3CSCCN3Cc3cc(Cl)ccc32)cc1)c1ccccc1-c1ccccc1 (racemic) [Compound 37, (RS)-2-Phenyl-N-[4-(8-chloro-1,3,4,12a-tetrahydro-6H-[1,4]thiazino[4,3-a][1,4]-benzodiazepin-11(12H)-yl-carbonyl)phenyl]benzamide] | –
